The source of these data is patent US8173606B2, “Sulfated oligosaccharide derivatives” (Progen Pharmaceuticals Limited, priority 2004, dated 2012).

For this assay, the target named is T1, heparanase (Homo sapiens, UniProt Q9Y251).
T1 sequence (Q9Y251 158-543 limits assumed): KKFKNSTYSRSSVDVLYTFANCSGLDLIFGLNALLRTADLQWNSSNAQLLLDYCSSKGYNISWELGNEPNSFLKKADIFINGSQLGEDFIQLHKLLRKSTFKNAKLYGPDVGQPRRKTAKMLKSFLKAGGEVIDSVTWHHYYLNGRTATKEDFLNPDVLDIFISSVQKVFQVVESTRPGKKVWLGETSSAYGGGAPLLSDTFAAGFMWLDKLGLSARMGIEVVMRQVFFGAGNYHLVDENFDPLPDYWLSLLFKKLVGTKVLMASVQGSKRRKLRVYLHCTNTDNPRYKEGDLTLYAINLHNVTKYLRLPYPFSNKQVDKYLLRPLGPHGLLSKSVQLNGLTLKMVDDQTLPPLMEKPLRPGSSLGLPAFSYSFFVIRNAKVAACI
T1 sequence (Q9Y251 36-109 limits assumed): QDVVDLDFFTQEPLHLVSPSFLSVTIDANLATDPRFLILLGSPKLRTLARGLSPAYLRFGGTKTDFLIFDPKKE
Description: Heparanase inhibition, Microcon ultrafiltration assay. The assay is classed as biochemical. The settings on record: 3H labelled HS, pH 5.0, 22° C., 2.5 h. How it is done:
The heparanase assays were performed using a Microcon ultrafiltration assay. The assays rely on the principle of physically separating heparan sulfate (HS) that has been digested by heparanase from native HS to determine heparanase activity. The assay uses ultrafiltration devices (Microcon YM-10) to separate the smaller heparanase-cleaved HS fragments from native HS.
A reaction was set up with a volume of 90 μL, • 40 mM acetate buffer (pH 5.0) • 0.1 mg/mL BSA • 90 ng heparanase • 2.5 μM ^3H labelled HS • various concentrations of inhibitors.
The reactions were set up with all components except the ^3H labelled HS and allowed to equilibrate for 10 min at 22° C. The assays were then initiated by adding the HS and immediately 20 μL was taken, mixed with 80 μL of 10 mM phosphate (pH 7.0) and the 100 μL transferred to a Microcon YM-10 concentrator which was then centrifuged at approximately 14000 g for 5 min. The solution that passed through the membrane (filtrate) was retained. This sample was considered the time=0 sample. The assays (now 70 μL in volume) were allowed to react at 22° C. for 2.5 h and then the filtration step was repeated for three aliquots of 20 μL from each assay.
The time=0 filtrate and the three 2.5 h filtrate samples were counted for ^3H. The difference between the time=0 and the averaged 2.5 h samples gave the amount of heparanase activity. All inhibition assays were run with a heparanase standard assay which was identical to the assay composition above except no inhibitor was present and the amount of heparanase inhibition in the other assays determined by comparison with this standard.

By IC50 is commonly meant the concentration that inhibits the measured activity by half. Regarding Benzyl Glycoside Polysulfate [PG500], the IC50 was found to be 1830 ± 483 nM.

As for Octyl Glycoside Polysulfate [PG501], the 50% inhibitory concentration (IC50) is 1640 ± 406 nM.
